Results taken from patent publication US9399649B2, “Compounds for treating spinal muscular atrophy” (PTC Therapeutics Inc., priority 2012, dated 2016).

How the values were obtained:
Smn protein = Smn protein assay in cultured cells (SMN HTRF); format: cell-based, human; conditions: SMA patient fibroblast cells (GM03813), 48 hours; for EC1.5x for Smn protein expression: 7-point concentration curve, concentration producing 1.5 times Smn protein vs DMSO vehicle; for maximum fold (Fold) increase of Smn protein: 7-point concentration data, relative to vehicle control
Procedure, shortened: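 Smn protein measured by HTRF (anti-SMN d2/kryptate) in lysates of SMA patient fibroblasts after 48 h compound treatment, 7-point 3.16-fold dilutions, triplicates. The 665/620 nm ratio is blank-corrected to ΔF, then divided by the vehicle ΔF to give fold increase.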

[1] = system: full length SMN2 minigene mRNA containing SMN2 exon 7; assay: SMN2 minigene mRNA splicing RT-qPCR assay in cultured cells; format: cell-based, human; conditions: Homo sapiens, HEK293-H; HEK293H cells stably transfected with SMN2-A minigene, 24 hours, 7-point concentration curve; concentration giving 1.5-fold full length SMN2 mRNA vs vehicle; read-out: EC1.5x for production of full length SMN2 mRNA
Procedure, shortened: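 Read-out is minigene FL mRNA (exon 7 included) relative to vehicle, from efficiency-corrected ΔΔCt with GAPDH normalisation. Primers and probe span exon 7, exon 8 and luciferase, so endogenous SMN is not detected. Stable SMN2-A minigene HEK293H cells, 24 h compound exposure at 37 °C, 7-point curve in duplicate.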

SMILES	melting point [°C]	EC1.5x for Smn protein expression (Smn protein)	maximum fold (Fold) increase of Smn protein (Smn protein)	EC (1.5-fold) [1] [µM]
CCc1nc(C)cn2cc(-c3cc4ccc(N5CCN(C)[C@@H](C)C5)cc4c(=O)o3)nc12 [Cpd 155, 7-[(3S)-3,4-dimethylpiperazin-1-yl]-3-(8-ethyl-6-methylimidazo[1,2-a]pyrazin-2-yl)-1H-isochromen-1-one]	233 to 238	**** (an EC1.5×≦0.3 nM is indicated by four stars (****))	***** (a fold increase >1.65 is indicated by five stars (*****))	≤ 0.1
CN1CCN(c2ccc3cc(-c4ccc5nn(C)cc5c4)oc(=O)c3c2)CC1 [Cpd 157, 3-(2-methyl-2H-indazol-5-yl)-7-(4-methylpiperazin-1-yl)-1H-isochromen-1-one]	239 to 240	**** (an EC1.5×≦0.3 nM is indicated by four stars (****))	**** (a fold increase between >1.5 and ≦1.65 is indicated by four stars (****))	≤ 0.1
CCc1nc(C)cn2cc(-c3cc4ccc(C5=CCNCC5)cc4c(=O)o3)nc12 [Cpd 159, 3-(8-ethyl-6-methylimidazo[1,2-a]pyrazin-2-yl)-7-(1,2,3,6-tetrahydropyridin-4-yl)-1H-isochromen-1-one]	239 to 241	**** (an EC1.5×≦0.3 nM is indicated by four stars (****))	***** (a fold increase >1.65 is indicated by five stars (*****))	≤ 0.1

The next lines start with results.

melting point [°C]	SMILES	EC1.5x for Smn protein expression (Smn protein)	maximum fold (Fold) increase of Smn protein (Smn protein)	EC (1.5-fold) [1] [µM]
239 to 244	CCc1nc(C)cn2cc(-c3cc4ccc(N5C[C@@H](C)N[C@@H](C)C5)cc4c(=O)o3)nc12 [Cpd 154, 7-[(3R,5S)-3,5-dimethylpiperazin-1-yl]-3-(8-ethyl-6-methylimidazo[1,2-a]pyrazin-2-yl)-1H-isochromen-1-one]	**** (an EC1.5×≦0.3 nM is indicated by four stars (****))	***** (a fold increase >1.65 is indicated by five stars (*****))	≤ 0.1
268 to 270	Cn1cc2cc(-c3cc4ccc(N5CCNCC5)cc4c(=O)o3)ccc2n1 [Cpd 156, 3-(2-methyl-2H-indazol-5-yl)-7-(piperazin-1-yl)-1H-isochromen-1-one]	**** (an EC1.5×≦0.3 nM is indicated by four stars (****))	***** (a fold increase >1.65 is indicated by five stars (*****))	≤ 0.1
235 to 238	CCc1nc(C)cn2cc(-c3cc4ccc(N5C[C@@H](C)N(C)[C@@H](C)C5)cc4c(=O)o3)nc12 [Cpd 158, 3-(8-ethyl-6-methylimidazo[1,2-a]pyrazin-2-yl)-7-[(3R,5S)-3,4,5-trimethylpiperazin-1-yl]-1H-isochromen-1-one]	**** (an EC1.5×≦0.3 nM is indicated by four stars (****))	***** (a fold increase >1.65 is indicated by five stars (*****))	≤ 0.1
